Type in all cases: functional, organism-based
Common to all, as to set-up: conc 20 uM

Assay [1] relates to Mycobacteroides abscessus. Kind of assay: (§1) Inhibition of mycobacterial growth using the resazurin microtitre cell viability assay (REMA), compounds at final concentration of 20 µM (2% v/v DMSO). Hits were classed as compounds that inhibited bacterial growth by 70% or more compared to drug-free controls. Conditions: ATCC19977.
For assay [2], the system named is Mycobacterium tuberculosis. The assay is described as §1. Particulars: H37Rv.
In assay [3] the test system is Mycobacterium intracellulare subsp. chimaera. The assay is described as §1. Particulars: NCTC13781.

On to MMV652003, for which the Survival was 109% in assay [1], 112% in assay [2] and 97.2% in assay [3].

As to MMV200748, the Survival was 108% in assay [1], 103% in assay [2] and 100% in assay [3].

In the case of MMV689709, the Survival in assay [1] is 114%; in assay [2] it was 97.3%; in assay [3], 91.7%.

MMV675997: the Survival was 105% in assay [1], 99.4% in assay [2] and 98.5% in assay [3].

As to MMV392832, the Survival in assay [1] was 106%; in assay [2], 75.4%; in assay [3], 93.8%.

As to MMV687696, the values for the Survival in assay [1], in assay [2] and in assay [3] were 109%, 44.7% and 75.7%, respectively.

For the substance MMV688980, the figures for the Survival in assay [1], in assay [2] and in assay [3] were 87.1%, 99.6% and 92%, respectively.

In the case of MMV688543, the Survival in assay [1] was 101%; in assay [2], 89%; in assay [3] it was 97.2%.

For the substance MMV1028806, the results for the Survival in assay [1], in assay [2] and in assay [3] were 116%, 26.7% and 100%, respectively.

For MMV637953, the Survival in assay [1] is 145%; in assay [2], 102%; in assay [3] it was 117%.

MMV676377: the Survival in assay [1] was 108%; in assay [2] it was 50.2%; in assay [3], 77.7%.

With MMV687188, the values for the Survival in assay [1], in assay [2] and in assay [3] were 110%, 43.4% and 73.5%, respectively.

Take MMV688345: the Survival in assay [1] was 113%; in assay [2], 86%; in assay [3] it was 86.9%.

Regarding MMV687729, the Survival was 112% in assay [1], 13.1% in assay [2] and 30.5% in assay [3].

MMV676384: the Survival in assay [1] was 109%; in assay [2] it was 54.5%; in assay [3], 101%.

MMV687800: the Survival in assay [1] was 109%; in assay [2] it was 6.34%; in assay [3], 6.51%.

As to MMV687243, the Survival in assay [1] is 113%; in assay [2], 87.1%; in assay [3] it was 106%.

Regarding MMV461553, the results for the Survival in assay [1], in assay [2] and in assay [3] were 103%, 42.2% and 7.21%, respectively.

As for MMV688793, the figures for the Survival in assay [1], in assay [2] and in assay [3] were 114%, 89.7% and 101%, respectively.

In the case of MMV688509, the values for the Survival in assay [1], in assay [2] and in assay [3] were 119%, 91.6% and 110%, respectively.

MMV012074: the Survival is 110% in assay [1], 53.4% in assay [2] and 88.4% in assay [3].

In the case of MMV020517, the Survival in assay [1] is 123%; in assay [2], 79.9%; in assay [3], 94%.

As for MMV688467, the Survival in assay [1] is 118%; in assay [2], 95.5%; in assay [3], 111%.

On to MMV1110498, for which the Survival in assay [1] was 111%; in assay [2], 97.9%; in assay [3], 102%.

As for MMV1198433, the Survival was 98.6% in assay [1], 105% in assay [2] and 112% in assay [3].

Regarding MMV658993, the Survival was 101% in assay [1], 83.9% in assay [2] and 100% in assay [3].

With MMV688271, the Survival in assay [1] is 108%; in assay [2], 1.1%; in assay [3], 3.73%.

Take MMV675995: the Survival in assay [1] is 111%; in assay [2] it was 90.8%; in assay [3], 97.4%.

Regarding MMV676048, the Survival was 114% in assay [1], 90.5% in assay [2] and 94.4% in assay [3].

With MMV676478, the values for the Survival in assay [1], in assay [2] and in assay [3] were 111%, 44.5% and 96.5%, respectively.

For the substance MMV032967, the Survival in assay [1] is 104%; in assay [2], 92.6%; in assay [3], 87.8%.

Regarding MMV020136, the figures for the Survival in assay [1], in assay [2] and in assay [3] were 129%, 88.7% and 88.5%, respectively.

Regarding MMV676604, the Survival was 119% in assay [1], 95% in assay [2] and 104% in assay [3].

For the substance MMV688180, the results for the Survival in assay [1], in assay [2] and in assay [3] were 116%, 94% and 101%, respectively.

For the substance MMV676599, the Survival in assay [1] is 115%; in assay [2], 88.2%; in assay [3] it was 102%.

Turning to MMV690028, the figures for the Survival in assay [1], in assay [2] and in assay [3] were 120%, 95.8% and 92.3%, respectively.

On to MMV676182, for which the Survival in assay [1] is 102%; in assay [2], 91.4%; in assay [3], 104%.

MMV007920: the Survival in assay [1] is 102%; in assay [2], 98%; in assay [3], 99.7%.

As to MMV689029, the Survival in assay [1] is 119%; in assay [2], 86.9%; in assay [3] it was 93.5%.

Turning to MMV407834, the Survival was 113% in assay [1], 97% in assay [2] and 114% in assay [3].

MMV687180: the Survival in assay [1] was 107%; in assay [2] it was 74.6%; in assay [3], 105%.

Regarding MMV676350, the figures for the Survival in assay [1], in assay [2] and in assay [3] were 116%, 94.9% and 105%, respectively.

For the substance MMV676395, the Survival is 111% in assay [1], 2.49% in assay [2] and -0.21% in assay [3].

As for MMV085230, the Survival in assay [1] is 118%; in assay [2], 93.7%; in assay [3], 111%.

As to MMV020289, the figures for the Survival in assay [1], in assay [2] and in assay [3] were 113%, 86.3% and 103%, respectively.

Regarding MMV032995, the Survival in assay [1] is 111%; in assay [2], 89.1%; in assay [3] it was 98.4%.

For the substance MMV021057, the figures for the Survival in assay [1], in assay [2] and in assay [3] were 126%, 96.6% and 110%, respectively.

Turning to MMV006833, the Survival in assay [1] was 126%; in assay [2], 93.7%; in assay [3], 115%.

Turning to MMV020520, the Survival was 125% in assay [1], 104% in assay [2] and 113% in assay [3].

Turning to MMV676186, the Survival in assay [1] was 105%; in assay [2], 94.5%; in assay [3] it was 98.8%.

Regarding MMV084864, the Survival was 101% in assay [1], 84.2% in assay [2] and 100% in assay [3].

For MMV676204, the Survival in assay [1] is 107%; in assay [2] it was 99.7%; in assay [3], 101%.

Regarding MMV023233, the Survival was 106% in assay [1], 89.1% in assay [2] and 90.8% in assay [3].

In the case of MMV689437, the Survival in assay [1] is 99%; in assay [2], 104%; in assay [3], 106%.

For the substance MMV634140, the Survival in assay [1] is 110%; in assay [2], 81%; in assay [3] it was 84%.

In the case of MMV687254, the Survival in assay [1] was 113%; in assay [2], 106%; in assay [3], 107%.

In the case of MMV020391, the Survival is 108% in assay [1], 95.4% in assay [2] and 91.8% in assay [3].

Consider MMV688360, for which the values for the Survival in assay [1], in assay [2] and in assay [3] were 100%, 100% and 94.3%, respectively.

As to MMV667494, the Survival in assay [1] is 110%; in assay [2], 84.1%; in assay [3] it was 95.7%.

Regarding MMV019807, the Survival in assay [1] is 116%; in assay [2], 97.4%; in assay [3] it was 118%.

In the case of MMV202553, the Survival was 109% in assay [1], 83.4% in assay [2] and 100% in assay [3].

As to MMV676597, the Survival is 113% in assay [1], 98% in assay [2] and 99.5% in assay [3].

Take MMV687730: the Survival was 18.8% in assay [1], 71.2% in assay [2] and 87.3% in assay [3].

MMV676053: the figures for the Survival in assay [1], in assay [2] and in assay [3] were 97.1%, 89.4% and 105%, respectively.

Consider MMV272144, for which the Survival in assay [1] was 110%; in assay [2], 85.8%; in assay [3] it was 105%.

On to MMV687775, for which the Survival in assay [1] was 122%; in assay [2], 91%; in assay [3], 98.2%.

Turning to MMV024101, the Survival was 95.8% in assay [1], 99.6% in assay [2] and 100% in assay [3].

For MMV611037, the Survival in assay [1] was 106%; in assay [2], 92.7%; in assay [3] it was 105%.

With MMV676468, the Survival is 103% in assay [1], 10.5% in assay [2] and 96.9% in assay [3].

In the case of MMV687138, the Survival in assay [1] is 102%; in assay [2], 56.3%; in assay [3], 104%.

As to MMV016136, the Survival was 118% in assay [1], 107% in assay [2] and 108% in assay [3].

With MMV688766, the Survival in assay [1] was 111%; in assay [2], 88.4%; in assay [3], 104%.

Regarding MMV020591, the Survival in assay [1] is 113%; in assay [2], 106%; in assay [3], 112%.

Consider MMV026313, for which the Survival is 100% in assay [1], 82.9% in assay [2] and 86.2% in assay [3].

Take MMV007133: the Survival in assay [1] was 95%; in assay [2] it was 98.7%; in assay [3], 95.2%.

As for MMV020320, the Survival is 113% in assay [1], 42.2% in assay [2] and 98.9% in assay [3].

Source of the values: ChEMBL document CHEMBL4665541, “Search for new therapeutic options for the uncommon pathogen Mycobacterium chimaera: an open drug discovery approach” (Lancet Microbe, 2021).
